Assay results: article PMC9004346, “Development of small cyclic peptides targeting the CK2α/β interface” (Chemical Communications (Cambridge, England), 2022)
*1 amine or outer side, *2 acyl side, *3 side chain or, on linkers, in order; H or OH if unused. Where a SMILES comes first, the peptide text is derived from it. Bridges are numbered along the chain shown (N, C = ends). [ ]: non-standard residue; d: D form. Trp(2-yl) = O=C([C@H](Cc1c([*:3])[nH]c2ccccc12)N[*:1])[*:2]; hCys = N[C@@H](CCS)C(=O)O

Test: Serum stability test
Type: in vitro ADME
Details: 20% human serum in PBS, 37 °C, monitored over 24 h
Experimental: 1.6.3 Serum stability test
500 μL of PBS buffer supplemented with 20% (v/v) of human serum was allocated into an Eppendorf tube and temperature kept at 37 °C for 15 minutes before commencing the experiment. 5 µL of the peptide from 10 mM stock solution in DMSO was added. Caffeine was added as an internal standard (10 μL of a 15 mg/mL solution in MQ water). At specific intervals, 50 µL of the reaction mixture was taken and quenched with 100 µL of a 1:1 mixture of 96% Ethanol:DMSO. The suspension was spun at 13400 g for 10 minutes. 100 μL of the supernatant was analysed using C-18 HPLC with an eluting gradient 5-95% MeCN (0.05% TFA) in water (0.05% TFA) over 15 minutes (90 μL injection volume).
Percentage of intact starting peptide was monitored over 24 h (calculated as the ratio of the area of […]
the peak corresponding to the intact peptide to the area of the peak of caffeine). The experiment was […]
1 M. M. Wiedmann, Y. S. Tan, Y. Wu, S. Aibara, W. Xu, H. F. Sore, C. S. Verma, L. Itzhaki, M.
Stewart, J. D. Brenton and D. R. Spring, Angew. Chemie Int. Ed., 2017, 56, 524–529.
3 G. T. Potter, G. C. Jayson, G. J. Miller and J. M. Gardiner, J. Org. Chem., 2016, 81, 3443–3446.
4 J. Iegre, P. Brear, D. J. Baker, Y. S. Tan, E. L. Atkinson, H. F. Sore, D. H. O’ Donovan, C. S. Verma,
7 C. Puig Duran, F. Albericio Palomera, M. Gongora Benitez, M. Paradis Bas, L. Miret Casals, I. […]

**Q.** With CC(=O)N[C@H]1CCSc2[nH]c3ccccc3c2C[C@@H](C(N)=O)NC(=O)[C@H](CCCCN)NC(=O)[C@H](Cc2ccccc2)NC(=O)CNC(=O)[C@H](Cc2ccc(O)cc2)NC(=O)[C@H](CC(C)C)NC(=O)[C@H](CCCNC(=N)N)NC1=O [Peptide P8C9, (hC)C9RLYGFKWC9] (Ac-[hCys]RLYGFK[Trp(2-yl)]-NH2; thioether 1-8) as the compound, how does the “Serum stability (in words)” value read?
**A.** fully stable in serum over 24 h
